Experiments:
[1] = biological target: T1, human MPC1L/MPC2 complex (Homo sapiens, UniProt O95563+P0DKB6); assay: nano-DSF thermostability shift assay, purified MPC1L/MPC2; format: binding; conditions: inhibitor 100 μM; for Tm, nano-DSF: unliganded 51.9 ± 0.1, mean ± s.d., 2 biological repeats
T1 construct: eight-histidine tag (C, cleaved yes); TEV protease cleavage site (part stays on MPC2 after digestion) (C, cleaved yes); made in house; host or cells: Saccharomyces cerevisiae SHY15 (mpc triple deletion strain), purified from mitochondria
T1 sequence (P0DKB6 2-136): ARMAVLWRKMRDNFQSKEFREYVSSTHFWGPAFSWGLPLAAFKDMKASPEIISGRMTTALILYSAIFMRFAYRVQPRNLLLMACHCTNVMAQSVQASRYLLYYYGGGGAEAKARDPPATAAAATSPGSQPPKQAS
T1 sequence (O95563 2-127): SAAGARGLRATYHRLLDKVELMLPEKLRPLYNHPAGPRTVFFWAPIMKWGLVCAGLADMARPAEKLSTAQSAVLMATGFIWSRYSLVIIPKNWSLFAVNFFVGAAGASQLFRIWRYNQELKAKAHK
Procedure: Ligand binding was also assessed using dye-free nano differential scanning fluorimetry (nano-DSF) to monitor fluorescence changes due to altered environments of tryptophan and tyrosine residues during unfolding. Protein samples in buffer containing 20 mM Tris–HCl pH 7.4, 150 mM NaCl, 0.1% (w/v) LMNG, 0.1 mg/mL TOCL, in the presence or absence of the indicated concentrations of small molecule inhibitors, were loaded into capillary tubes, and a temperature ramp of 5 °C/min was applied. The intrinsic fluorescence was measured using the NanoTemper Prometheus NT.48 (NanoTemper, München, Germany).

[2] = biological target: T2, recombinant human MPC1L/MPC2 (Homo sapiens, UniProt O95563+P0DKB6); assay: Electrospray mass spectrometry of MPC1L/MPC2 after reaction with inhibitors or sulfhydryl modifiers; conditions: for Mass difference (observed vs calculated), MPC1L (2–136) / Mass difference (observed vs calculated), MPC1L (5–136) / Mass difference (observed vs calculated), MPC2 (2–137): MPC1L/MPC2 after reaction with compound; for Covalent modification of MPC protomers (molecular mass change): folded MPC1L/MPC2 incubated with compound, ESI-MS
T2 construct: MPC1L (2–136); MPC2 (2–137); eight-histidine tag (C, cleaved yes); TEV protease cleavage site (part stays on MPC2 after digestion) (C, cleaved yes); made in house; host or cells: Saccharomyces cerevisiae SHY15 (mpc triple deletion strain), purified from mitochondria
T2 sequence (P0DKB6 2-136 limits assumed): T1 sequence (P0DKB6 2-136)
T2 sequence (O95563 2-127 limits assumed): T1 sequence (O95563 2-127)
Procedure: Different MPC inhibitors (Table1) or sulfhydryl reagents were first incubated with MPC1L/MPC2 in a folded state, then the protein molecular masses were measured by electrospray mass spectrometry. The MPC subunits (10 μg) were resolved by reverse-phase HPLC on a PLRP-S column (1.0 mm i.d. X 75 mm; VARIAN) using a gradient of 2-propanol in a solvent system compatible with the recovery of membrane proteins (Carroll et al., 2009). The eluate (50 μL/min) was introduced into a QTRAP4000 (SCIEX) mass spectrometer operating in positive ion single MS mode. The instrument was scanned from 700 m/z to 2300 m/z after calibration with ions from a mixture of 1.0 μM of myoglobin and 1.5 μM trypsinogen. Molecular masses were obtained by reconstruction of the spectra of multiply charged ions using PeakView (SCIEX).

[3] = biological target: T3, MPC2 protomer (Homo sapiens, UniProt O95563); assay: CPM thermostability shift assay, individually purified MPC2; format: binding; conditions: 100 μM inhibitor
T3 construct: Factor Xa or TEV cleavage site followed by eight-histidine tag (C); made in house
T3 sequence (O95563 1-127): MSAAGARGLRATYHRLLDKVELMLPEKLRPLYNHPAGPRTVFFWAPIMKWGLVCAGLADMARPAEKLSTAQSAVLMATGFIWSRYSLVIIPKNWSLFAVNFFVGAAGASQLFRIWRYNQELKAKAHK
Procedure: (§1) The assessment of ligand binding was performed via shifts in protein thermostability upon binding using thermal denaturation on a rotary quantitative PCR (qPCR) instrument (Qiagen Rotor-Gene Q 2plex HRM, Venlo, Netherlands), as previously described. In this method, cysteine residues, buried within the protein structure, become solvent-exposed during denaturation in a temperature ramp and then react with 7-diethylamino-3-(4-maleimidophenyl)-4-methylcoumarin (CPM) to form fluorescent-adducts. Briefly, a CPM working solution was prepared by diluting the CPM stock (5 mg/mL in dimethyl sulfoxide) 50-fold into assay buffer (20 mM Tris–HCl, pH 7.4, 150 mM NaCl, 0.1% (w/v) LMNG, 0.1 mg/mL TOCL) and incubated for 10 min at room temperature. In each analysis, performed in duplicates or triplicates, 3 μg of purified MPC was diluted into 45 μL of assay buffer containing the desired concentration of the inhibitor then incubated for 10 min on ice. Next, 5 μL of the CPM working solution were added. Samples were incubated on ice for an additional 10 min then subjected to a temperature ramp of 5.6 °C/min. The fluorescence increase was monitored with the HRM channel of the instrument (excitation at 440–480 nm, emission at 505–515 nm). Unfolding profiles were analysed with the Rotor-Gene Q software 2.3, and the peaks of their derivatives were used to determine the apparent melting temperature.

[4] = biological target: T4, human MPC1L/MPC2 hetero-dimer (Homo sapiens, UniProt O95563+P0DKB6); assay: Inhibition of [14C]-pyruvate homo-exchange in MPC1L/MPC2 proteoliposomes; format: biochemical; conditions: for IC50 / Inhibition of pyruvate transport, residual activity compared to control: MPC1L/MPC2 proteoliposomes; for IC50: 50 μM [14C]-pyruvate homo-exchange, mean ± s.d., read-out: IC50 of pyruvate transport inhibition; for Inhibition of pyruvate transport, residual activity compared to control: compound 100 μM; for Inhibitory potency for human MPC1L/MPC2 compared to yeast Mpc1/Mpc3: human vs yeast protein, yeast values ref 15
T4 construct: eight-histidine tag (C, cleaved yes); TEV protease cleavage site (part stays on MPC2 after digestion) (C, cleaved yes); made in house; host or cells: Saccharomyces cerevisiae SHY15 (mpc triple deletion strain), purified from mitochondria
T4 sequence (P0DKB6 2-136): T1 sequence (P0DKB6 2-136)
T4 sequence (O95563 2-127): T1 sequence (O95563 2-127)
Procedure: Egg L-α-phosphatidylcholine 99% (w/v) (Avanti Polar Lipids, AL, USA) and TOCL were mixed in a 20:1 (w/w) ratio, dried under a stream of nitrogen and washed once with methanol before being dried again. Lipids were hydrated in 20 mM Tris–HCl, pH 8.0, 50 mM NaCl to a concentration of 12 mg/mL. Unlabeled pyruvate was added as a freshly made concentrated stock at a final concentration of 5 mM for internalisation. Lipids were solubilised with 1.2% (v/v) pentaethylene glycol monodecyl ether (Sigma) and freshly purified protein was added at a lipid-to-protein ratio of 250:1 (w/w). Samples were incubated on ice for 5 min, then liposomes were formed by the step-wise removal of pentaethylene glycol monodecyl ether by five additions at 20 min intervals of 60 mg Bio-Beads SM-2 (Bio-Rad, Watford, UK) with gentle mixing at 4 °C. A final addition of 480 mg Bio-Beads was incubated with the samples overnight. Proteoliposomes were first separated from the Bio-Beads by passage through empty spin columns (Bio-Rad, Watford, UK) and subsequently pelleted at 120,000×g for 60 min. The proteoliposomes were resuspended with a thin needle in 150 μL of their supernatant after the rest of the supernatant was removed.
The time course of pyruvate homo-exchange was measured at room temperature. The transport was initiated by diluting proteoliposomes 200-fold into external buffer, 20 mM MES, pH 6.4, 50 mM NaCl, containing 50 μM [^14C]-pyruvate (500,000 dpm, Perkin Elmer, MA, USA). The reaction (0–30 s) was terminated by rapid dilution into 8 volumes of ice-cold internal buffer (20 mM Tris–HCl, pH 8.0, 50 mM NaCl), followed by rapid filtration through cellulose nitrate 0.45 μm filters (Millipore, Gillingham, UK) and washing with an additional 8 volumes of buffer. The filters were dissolved in Ultima Gold scintillation liquid (Perkin Elmer, MA, USA) and the radioactivity was counted with a Perkin Elmer Tri-Carb 2800 RT liquid scintillation counter. […] The data analysis was performed with non-linear regression fittings using GraphPad Prism 7.0d ([Inhibitor] vs response, variable slope). The specific uptake rates were calculated based on the amount of protein used in reconstitutions, as estimated from bicinchoninic acid assay. The biological repeats represent independent proteoliposome preparations using protein from independent purifications.

[5] = biological target: T5, MPC1/MPC2 hetero-dimer (Homo sapiens, UniProt O95563+Q9Y5U8); assay: CPM thermostability shift assay, MPC1/MPC2; format: binding; conditions: 100 μM inhibitor
T5 construct: eight-histidine tag (C, cleaved yes); Factor Xa cleavage site (C, cleaved yes); made in house; host or cells: Saccharomyces cerevisiae SHY15 (mpc triple deletion strain), purified from mitochondria
T5 sequence (Q9Y5U8 2-109 limits assumed): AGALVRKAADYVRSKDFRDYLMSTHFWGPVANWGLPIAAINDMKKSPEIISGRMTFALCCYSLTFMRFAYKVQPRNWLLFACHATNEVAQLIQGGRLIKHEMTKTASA
T5 sequence (O95563 2-127 limits assumed): T1 sequence (O95563 2-127)
Procedure: as §1

[6] = biological target: T1, human MPC1L/MPC2 complex; assay: CPM thermostability shift assay, purified MPC1L/MPC2; format: binding; conditions: for ΔTm at 100 µM: read-out: ∆Tm, CPM assay (thermal shift compared to no-ligand control); for Tm, CPM assay: unliganded 51.3 ± 0.2, mean ± s.d., 3 biological repeats
Procedure: as §1

[7] = biological target: mammalian MPCs; conditions: isolated mitochondria; cited from earlier work

∆Tm, nano-DSF [1] | Tm, nano-DSF [1] | Mass difference (observed vs calculated), MPC1L (2–136) [2] | Mass difference (observed vs calculated), MPC1L (5–136) [2] | Mass difference (observed vs calculated), MPC2 (2–137) [2] | Covalent modification of MPC protomers (molecular mass change) [2] | IC50 [4] | Inhibition of pyruvate transport, residual activity compared to control [4] | Inhibitory potency for human MPC1L/MPC2 compared to yeast Mpc1/Mpc3 [4] | ΔTm at 100 µM ([6]; inhibitor 100 μM) | Tm, CPM assay ([6]; inhibitor 100 μM) | ∆Tm, nano-DSF ([1]; listed as lonidamine) | Thermal shift in the CPM assay ([6]; compound 1 mM) | ∆Tm, CPM assay (thermal shift compared to no-ligand control) ([6]; inhibitor 100 μM) | SMILES | Thermostability shift of MPC2 alone [3] | Thermostability shift of MPC1/MPC2 [5] | Ki [7]
6.3 ± 0.4 °C | 58.2 ± 0.3 °C | 0.4 Da | 0.3 Da | 1.5 Da | no molecular mass differences | 321 ± 42 nM | completely inhibited | much higher potencies | 7.5 ± 0.6 °C | 58.8 ± 0.4 °C | – | – | – | CCCOc1ccccc1-c1nc2nn[nH]c2c(=O)[nH]1 [Zaprinast] | neither CHC nor zaprinast showed any shift | strong shifts | –
9.2 ± 0.7 °C | 61.1 ± 0.6 °C | 0.6 Da | 0.6 Da | 1.7 Da | no molecular mass differences | – | completely inhibited | – | 11.2 ± 1.1 °C | 62.5 ± 0.9 °C | – | – | – | N#CC(=Cc1cn(-c2ccccc2)c2ccccc12)C(=O)O [UK5099, α-cyano-β-(1-phenylindol-3-yl)-acrylate] | – | – | ~50 nM
0.6 ± 0.3 °C | 52.5 ± 0.2 °C | – | – | – | – | 4600 ± 1300 nM | – | much higher potencies | -0.2 ± 0.5 °C | 51.1 ± 0.3 °C | No thermal shifts | negative thermal shift | No thermal shifts | O=C(O)c1nn(Cc2ccc(Cl)cc2Cl)c2ccccc12 [Lonidamine, lonidamine] | – | – | 2500 nM

SMILES | ∆Tm, nano-DSF [1] | Tm, nano-DSF [1] | Mass difference (observed vs calculated), MPC1L (2–136) [2] | Mass difference (observed vs calculated), MPC1L (5–136) [2] | Mass difference (observed vs calculated), MPC2 (2–137) [2] | Covalent modification of MPC protomers (molecular mass change) [2] | IC50 [4] | Inhibition of pyruvate transport, residual activity compared to control [4] | Inhibitory potency for human MPC1L/MPC2 compared to yeast Mpc1/Mpc3 [4] | ΔTm at 100 µM ([6]; inhibitor 100 μM) | Tm, CPM assay ([6]; inhibitor 100 μM) | ∆Tm, nano-DSF ([1]; listed as lonidamine) | Thermal shift in the CPM assay ([6]; compound 1 mM) | ∆Tm, CPM assay (thermal shift compared to no-ligand control) ([6]; inhibitor 100 μM) | Thermostability shift of MPC2 alone [3] | Thermostability shift of MPC1/MPC2 [5] | Ki [7]
N#CC(=Cc1ccc(O)cc1)C(=O)O [CHC, α-cyano-4-hydroxy-cinnamate] | 7.0 ± 0.5 °C | 58.9 ± 0.4 °C | – | – | – | – | – | completely inhibited | – | 8.3 ± 0.6 °C | 59.6 ± 0.4 °C | – | – | – | neither CHC nor zaprinast showed any shift | strong shifts | –

— publication PMC8968063, “Key features of inhibitor binding to the human mitochondrial pyruvate carrier hetero-dimer” (Molecular Metabolism, 2022)
